Experimental data as given in patent US9586958B2, “Prodrug derivatives of substituted triazolopyridines” (BAYER PHARMA AKTIENGESELLSCHAFT, priority 2013, dated 2017).
Counter-ions that a name gives are not always drawn.

Columns and labels:
[1] = Stability in buffer at pH 7.4 (HPLC); type: physicochemical; conditions: buffer pH 7.4, 37° C.
Method: 0.3 mg of the test compound are solved in 0.1 ml dimethylsulfoxide and 0.4 ml acetonitrile. For complete dissolution the HPLC vial with the sample solution is sonified for about 20 seconds. Then 1.0 ml of the buffer solution is added, and the sample is again treated in the ultrasonic bath.
90 g of sodium chloride, 13.61 g of potassium dihydrogen phosphate and 83.35 g of 1 M sodium hydroxide solution are made up to 1 liter with Millipore water and then diluted 1:10.
10 μl portions of the sample solution are analysed by HPLC to determine the amount of the test compound over a period of 24 hours at 37° C. The peak areas in percentage are used for quantification.
Agilent 1100 with DAD (G1315B), binary pump (G1312A), autosampler (G1329A), column oven (G1316A), thermostat (G1330B); column: Kromasil 100 C18, 250 mm×4 mm, 5 μm; column temperature: 37° C.; eluent A: water+5 ml of perchloric acid/liter, eluent B: acetonitrile.
The ratio of the peak areas (F) at different time points in relation to the peak areas at the starting time are shown in Table 2 for representative examples: […]

[2] = In vitro stability in rat plasma (HPLC detection); type: in vitro ADME; conditions: 37° C.
Method: 1 mg of test compound is dissolved in 1.25 ml dimethylsulfoxide. Then 1.25 ml water are added. 0.5 ml of this sample solution are mixed with 0.5 ml heparinized and 37° C. warm plasma (wistar rat plasma or human plasma). A first sample (10 μl) is immediately taken for HPLC analysis. In the period up to 4 h after the start of incubation further 10 μl aliquots are taken after 30, 60, 90, 120 and 240 minutes and the amount of the test compound is determined.
Agilent 1100 with DAD (G1315A), binary pump (G1312A), autosampler (G1329A), column oven (G1316A), thermostat (G1330B); column: Kromasil 100 C18, 250 mm×4 mm, 5 μm; column temperature: 45° C.; eluent A: water+5 ml of perchloric acid/liter, eluent B: acetonitrile.

% Test Compound after 24 h [F(t = 24 h) × 100/F(t = 0 h)] [1] [%]	% Test Compound after 4 h [F(t = 24 h) × 100/F(t = 0 h)] [2] [%]	% Test Compound after 24 h [F(t = 24 h) × 100/F(t = 0 h)] ([1]; measured for formic acid salt)	Compound
0.0	0.0		C[C@@H](C(=O)Nc1ccc(-c2ccc3nc(N(C(=O)OCOC(=O)[C@@H](N)C(C)(C)C)c4ccc(C(=O)N5CC(F)C5)cc4OCC(F)(F)F)nn3c2)cc1)c1ccc(F)cc1.Cl [Example 6.3, [({4-[(3-fluoroazetidin-1-yl)carbonyl]-2-(2,2,2-trifluoroethoxy)phenyl}[6-(4-{[(2R)-2-(4-fluorophenyl)propanoyl]amino}phenyl)[1,2,4]triazolo[1,5-α]pyridin-2-yl]carbamoyl)oxy]methyl 3-methyl-L-valinate hydrochloride]
0.0	0.0		COc1cc(S(C)(=O)=O)ccc1N(C(=O)OCOC(=O)[C@@H](N)C(C)(C)C)c1nc2ccc(-c3ccc(NC(=O)[C@H](C)c4ccc(F)cc4)cc3)cn2n1.Cl [Example 1.5, ({[6-(4-{[(2R)-2-(4-fluorophenyl)propanoyl]amino}phenyl)[1,2,4]triazolo[1,5-α]pyridin-2-yl][2-methoxy-4-(methylsulfonyl)phenyl]carbamoyl}oxy)methyl 3-methyl-L-valinate hydrochloride]
16	37		COc1cc(S(C)(=O)=O)ccc1N(C(=O)OCOC(=O)[C@@H](NC(=O)[C@@H](N)C(C)C)C(C)C)c1nc2ccc(-c3ccc(NC(=O)[C@H](C)c4ccc(F)cc4)cc3)cn2n1 [Example 2.3, ({[6-(4-{[(2R)-2-(4-fluorophenyl)propanoyl]amino}phenyl)[1,2,4]triazolo[1,5-α]pyridin-2-yl][2-methoxy-4-(methylsulfonyl)phenyl]carbamoyl}oxy)methyl L-valyl-L-valinate hydrochloride]
		35.0 *) %	COc1cc(S(C)(=O)=O)ccc1N(C(=O)OCOC(=O)C1CCNCC1)c1nc2ccc(-c3ccc(NC(=O)[C@H](C)c4ccc(F)cc4)cc3)cn2n1.O=C(O)C(F)(F)F [Example 1.1, ({[6-(4-{[(2R)-2-(4-fluorophenyl)propanoyl]amino}phenyl)[1,2,4]triazolo[1,5-α]pyridin-2-yl][2-methoxy-4-(methylsulfonyl)phenyl]carbamoyl}oxy)methyl piperidine-4-carboxylate trifluoroacetate]
21	32		CNCCCC(=O)N(c1nc2ccc(-c3ccc(NC(=O)[C@H](C)c4ccc(F)cc4)cc3)cn2n1)c1ccc(S(C)(=O)=O)cc1OC.Cl [Example 4.1.1, N-[6-(4-{[(2R)-2-(4-fluorophenyl)propanoyl]amino}phenyl)[1,2,4]triazolo[1,5-α]pyridin-2-yl]-N-[2-methoxy-4-(methylsulfonyl)phenyl]-4-(methylamino)butanamide hydrochloride]
21	19		COc1cc(S(C)(=O)=O)ccc1N(C(=O)OC(OC(=O)[C@@H](N)C(C)(C)C)C(C)C)c1nc2ccc(-c3ccc(NC(=O)[C@H](C)c4ccc(F)cc4)cc3)cn2n1.Cl (mixture of isomers) [Example 5.1, (1RS)-1-({[6-(4-{[(2R)-2-(4-fluorophenyl)propanoyl]amino}phenyl)[1,2,4]triazolo[1,5-α]pyridin-2-yl][2-methoxy-4-(methylsulfonyl)phenyl]carbamoyl}oxy)-2-methylpropyl 3-methyl-L-valinate hydrochloride]
0.0	4		C[C@@H](C(=O)Nc1ccc(-c2ccc3nc(N(C(=O)OCOC(=O)[C@@H](N)C(C)(C)C)c4ccc(S(C)(=O)=O)cc4OCC(F)(F)F)nn3c2)cc1)c1ccc(F)cc1.Cl [Example 6.1, ({[6-(4-{[(2R)-2-(4-fluorophenyl)propanoyl]amino}phenyl)[1,2,4]triazolo[1,5-α]pyridin-2-yl][4-(methylsulfonyl)-2-(2,2,2-trifluoroethoxy)phenyl]carbamoyl}oxy)methyl 3-methyl-L-valinate hydrochloride]
23	12		CNCCCC(=O)N(c1nc2ccc(-c3ccc(NC(=O)[C@H](C)c4ccc(F)cc4)cc3)cn2n1)c1ccc(S(C)(=O)=O)cc1OC.O=C(O)C(F)(F)F [Example 4.1, N-[6-(4-{[(2R)-2-(4-fluorophenyl)propanoyl]amino}phenyl)[1,2,4]triazolo[1,5-α]pyridin-2-yl]-N-[2-methoxy-4-(methylsulfonyl)phenyl]-4-(methylamino)butanamide trifluoroacetate]
0.0			CC[C@H](C)[C@H](N)C(=O)OC(C)OC(=O)N(c1nc2ccc(-c3ccc(NC(=O)[C@H](C)c4ccc(F)cc4)cc3)cn2n1)c1ccc(S(C)(=O)=O)cc1OC.Cl (single isomer, unassigned) [Example 3.7, (1R or 1S)-1-({[6-(4-{[(2R)-2-(4-fluorophenyl)propanoyl]amino}phenyl)[1,2,4]triazolo[1,5-α]pyridin-2-yl][2-methoxy-4-(methylsulfonyl)phenyl]carbamoyl}oxy)ethyl-L-isoleucinate hydrochloride]
	0.0		COc1cc(S(C)(=O)=O)ccc1N(C(=O)OCOP(=O)(O)O)c1nc2ccc(-c3ccc(NC(=O)[C@H](C)c4ccc(F)cc4)cc3)cn2n1 [Example 1.6, (phosphonooxy)methyl [6-(4-{[(2R)-2-(4-fluorophenyl)propanoyl]amino}phenyl)[1,2,4]triazolo[1,5-α]pyridin-2-yl][2-methoxy-4-(methylsulfonyl)phenyl]carbamate]
	33		COc1cc(S(C)(=O)=O)ccc1N(C(=O)OC(OC(=O)C(C)(C)N)C(C)C)c1nc2ccc(-c3ccc(NC(=O)[C@H](C)c4ccc(F)cc4)cc3)cn2n1.Cl (mixture of isomers) [Example 5.5, (1RS)-1-({[6-(4-{[(2R)-2-(4-fluorophenyl)propanoyl]amino}phenyl)[1,2,4]triazolo[1,5-α]pyridin-2-yl][2-methoxy-4-(methylsulfonyl)phenyl]carbamoyl}oxy)-2-methylpropyl-2-methylalaninate hydrochloride]
	0.0		COc1cc(S(C)(=O)=O)ccc1N(C(=O)OCOC(=O)[C@@H](N)CC(C)C)c1nc2ccc(-c3ccc(NC(=O)[C@H](C)c4ccc(F)cc4)cc3)cn2n1.Cl [Example 1.3, ({[6-(4-{[(2R)-2-(4-fluorophenyl)propanoyl]amino}phenyl)[1,2,4]triazolo[1,5-α]pyridin-2-yl][2-methoxy-4-(methylsulfonyl)phenyl]carbamoyl}oxy)methyl L-leucinate hydrochloride]
0.0			CC[C@H](C)[C@H](N)C(=O)OC(C)OC(=O)N(c1nc2n(n1)CC(c1ccc(NC(=O)[C@H](C)c3ccc(F)cc3)cc1)C=C2)c1ccc(S(C)(=O)=O)cc1OC.Cl (single isomer, unassigned) [Example 3.6, (1S or 1R)-1-({[6-(4-{[(2R)-2-(4-fluorophenyl)propanoyl]amino}phenyl)[1,2,4]triazolo[1,5-α]pyridin-2-yl][2-methoxy-4-(methylsulfonyl)phenyl]carbamoyl}oxy)ethyl-isoleucinate hydrochloride]
	19		CC[C@H](C)[C@H](N)C(=O)OC(C)OC(=O)N(c1nc2ccc(-c3ccc(NC(=O)[C@H](C)c4ccc(F)cc4)cc3)cn2n1)c1ccc(S(C)(=O)=O)cc1OC.Cl (mixture of isomers) [Example 3.5, (1RS)-1-({[6-(4-{[(2R)-2-(4-fluorophenyl)propanoyl]amino}phenyl)[1,2,4]triazolo[1,5-α]pyridin-2-yl][2-methoxy-4-(methylsulfonyl)phenyl]carbamoyl}oxy)ethyl-L-isoleucinate hydrochloride]
	57		CNCC(=O)N(c1nc2ccc(-c3ccc(NC(=O)[C@H](C)c4ccc(F)cc4)cc3)cn2n1)c1ccc(S(C)(=O)=O)cc1OC.O=C(O)C(F)(F)F [Example 8.1, (2R)-2-(4-fluorophenyl)-N-[4-(2-{[2-methoxy-4-(methylsulfonyl)phenyl](N-methylglycyl)amino}[1,2,4]triazolo[1,5-α]pyridin-6-yl)phenyl]propanamide trifluoroacetate]
	6		CC(C)[C@H](N)C(=O)OCOC(=O)N(c1nc2ccc(-c3ccc(NC(=O)[C@H](C)c4ccc(F)cc4)cc3)cn2n1)c1ccc(S(C)(=O)=O)cc1OCC(F)(F)F.Cl [Example 6.2, ({[6-(4-{[(2R)-2-(4-fluorophenyl)propanoyl]amino}phenyl)[1,2,4]triazolo[1,5-α]pyridin-2-yl][4-(methylsulfonyl)-2-(2,2,2-trifluoroethoxy)phenyl]carbamoyl}oxy)methyl L-valinate hydrochloride]
